The text below walks through data of US10294202B2, “Pyrrolidinones as herbicides” (FMC Corporation, priority 2013, dated 2019).

The subject of assay [1] is rice, transplanted. The experiment in a line: Test F flood (paddy) test. The assay is classed as in vivo, Oryza sativa cv. Japonica—M202. The settings on record: 21 d, scale 0-100. The method in brief: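 In this paddy assay, 2.0–2.5-leaf plants grown in sterilized Tama silt loam (2.6% organic matter) at 30/27 °C with 16-h photoperiod receive compound via the 3-cm flood water. Control is rated visually at 21 d from 0 (none) to 100 (complete), versus untreated pots.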

The subject of assay [2] is kochia. The experiment in a line: Test C pre-/postemergence herbicide test. It is filed as in vivo, Kochia scoparia. From the text: Seeds of plant species selected from blackgrass (Alopecurus myosuroides), ryegrass, Italian (Italian ryegrass, Lolium multiflorum), wheat (winter wheat, Triticum aestivum), galium (catchweed bedstraw, Galium aparine), corn (Zea mays), crabgrass, large (large crabgrass, Digitaria sanguinalis), foxtail, giant (giant foxtail, Setaria faberii), johnsongrass (Sorghum halepense), lambsquarters (Chenopodium album), morningglory (Ipomoea coccinea), nutsedge, yellow (yellow nutsedge, Cyperus esculentus), pigweed (Amaranthus retroflexus), ragweed (common ragweed, Ambrosia elatior), soybean (Glycine max), barnyardgrass (Echinochloa crus-galli), oilseed rape (Brassica napus), waterhemp (common waterhemp, Amaranthus rudis), kochia (Kochia scoparia), oat, wild (wild oat, Avena fatua), surinam grass (Brachiaria decumbens), foxtail, green (green foxtail, Setaria viridis), goosegrass (Eleusine indica), bromegrass, downy (downy bromegrass, Bromus tectorum), nightshade (eastern black nightshade, Solanum ptycanthum), cocklebur (common cocklebur, Xanthium strumarium), cupgrass, woolly (woolly cupgrass, Eriochloa villosa), bermudagrass (Cynodon dactylon), sunflower, (common oilseed sunflower, Helianthus annuus), Russian thistle (Salsola kali) and velvetleaf (Abutilon theophrasti) were planted into a blend of loam soil and sand and treated preemergence with test chemicals formulated in a non-phytotoxic solvent mixture which included a surfactant. At the same time, plants selected from these crop and weed species and also barley (winter barley, Hordeum vulgare), […]), chickweed (common chickweed, Stellaria media), deadnettle (henbit deadnettle, Lamium amplexicaule), and canarygrass (littleseed canarygrass, Phalaris minor) were planted in pots containing Redi-Earth® planting medium (Scotts Company, 14111 Scottslawn Road, Marysville, Ohio 43041) comprising spaghnum peat moss, vermiculite, wetting agent and starter nutrients and treated with postemergence applications of test chemicals formulated in the same manner. Plants ranged in height from 2 to 18 cm (1- to 4-leaf stage) for postemergence treatments. Treated plants and controls were maintained in a greenhouse for 13 to 15 days, after which time all species were compared to controls and visually evaluated. Plant response ratings, summarized in Table C, are based on a scale of 0 to 100 where 0 is no effect and 100 is complete control. A dash (-) response means no test result.

For assay [3], the system named is bromegrass, downy. The experiment in a line: Test D pre-/postemergence herbicide test. It is filed as in vivo, Bromus tectorum. The settings on record: for Plant response rating: Bromegrass, Downy, scale 0 to 100; for Plant response rating, Bromegrass, Downy: scale 0 to 100 (0 no effect, 100 complete control). The source says: Seeds of plant species selected from bluegrass (annual bluegrass, Poa annua), blackgrass (Alopecurus myosuroides), canarygrass (littleseed canarygrass, Phalaris minor), chickweed (common chickweed, Stellaria media), galium (catchweed bedstraw, Galium aparine), bromegrass, downy (downy bromegrass, Bromus tectorum), field poppy (Papaver rhoeas), field violet (Viola arvensis), foxtail, green (green foxtail, Setaria viridis), deadnettle (henbit deadnettle, Lamium amplexicaule), ryegrass, Italian (Italian ryegrass, Lolium multiflorum), kochia (Kochia scoparia), lambsquarters (Chenopodium album), oilseed rape (Brassica napus), pigweed (Amaranthus retroflexus), chamomile (scentless chamomile, Matricaria inodora), Russian thistle (Salsola kali), speedwell (bird's-eye speedwell, Veronica persica), barley, spring (spring barley, Hordeum vulgare), wheat, spring (spring wheat, Triticum aestivum), buckwheat, wild (wild buckwheat, Polygonum convolvulus), mustard, wild (wild mustard, Sinapis arvensis), oat, wild (wild oat, Avena fatua), radish, wild (wild radish, Raphanus raphanistrum), […]), barley, winter (winter barley, Hordeum vulgare), and wheat, winter (winter wheat, Triticum aestivum) were planted into a silt loam soil and treated preemergence with test chemicals formulated in a non-phytotoxic solvent mixture which included a surfactant. At the same time, these species were planted in pots containing Redi-Earth® planting medium (Scotts Company, 14111 Scottslawn Road, Marysville, Ohio 43041) comprising spaghnum peat moss, vermiculite, wetting agent and starter nutrients and treated with postemergence applications of the test chemicals formulated in the same manner. Plants ranged in height from 2 to 18 cm (1- to 4-leaf stage). Treated plants and controls were maintained in a controlled growth environment for 7 to 21 days after which time all species were compared to controls and visually evaluated. Plant response ratings, summarized in Table D, are based on a scale of 0 to 100 where 0 is no effect and 100 is complete control. A dash (-) response means no test result.

The subject of assay [4] is chickweed. The experiment in a line: Test D pre-/postemergence herbicide test. The assay is classed as in vivo, Stellaria media. The conditions noted are these: for Plant response rating: Chickweed, scale 0 to 100; for Plant response rating, Chickweed: scale 0 to 100 (0 no effect, 100 complete control). The method in brief: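 Visual ratings from 0 (no effect) to 100 (complete control) were made against untreated controls 7 to 21 days after treatment. Application was both preemergence, on silt loam soil, and postemergence, to 1- to 4-leaf plants 2-18 cm tall; compounds were formulated in a non-phytotoxic surfactant-containing solvent.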

Setting [5] is: Postemergence, 31 g ai/ha, scale 0 (no effect) to 100 (complete control).
Where [6] appears, read: Postemergence, 62 g ai/ha, scale 0 to 100 (0 no effect, 100 complete control).
The mark [7] stands for this setting: Postemergence, 125 g ai/ha, scale 0 to 100 (0 no effect, 100 complete control).
The mark [8] stands for this setting: Postemergence, 250 g ai/ha, scale 0 to 100 (0 no effect, 100 complete control).

Consider `O=C1NCC(c2ccc(F)c(F)c2)C1C(=O)Nc1cccc(F)c1F` (racemic) [Compound 101], for which the “Plant response rating, Rice, Transplanted” value (shortened to “Plant response rating, Rice”) in assay [1] (64 g ai/ha), in assay [1] (125 g ai/ha), in assay [1] (250 g ai/ha) and in assay [1] (500 g ai/ha) was 0 each time. The “Plant response rating, Kochia” value in assay [2] (setting [5]) was 45; in assay [2] (setting [6]), 30; in assay [2] (setting [7]), 50; in assay [2] (setting [8]), 50.

Turning to `O=C1NCC(c2ccc(C(F)(F)F)cc2)C1C(=O)Nc1cccc(F)c1F` (racemic) [Compound 202], the Plant response rating in assay [3] (Postemergence, 31 g ai/ha) amounted to 0; in assay [3] (Postemergence, 62 g ai/ha), 0; in assay [3] (Postemergence, 125 g ai/ha), 5; in assay [3] (Postemergence, 250 g ai/ha), 15; in assay [3] (Preemergence, 125 g ai/ha), 0; in assay [3] (Preemergence, 250 g ai/ha), 20. Moreover, the Plant response rating in assay [4] (Postemergence, 31 g ai/ha) turned out to be 75; in assay [4] (Postemergence, 62 g ai/ha), 75; in assay [4] (Postemergence, 125 g ai/ha), 80; in assay [4] (Postemergence, 250 g ai/ha) it was 80; in assay [4] (Preemergence, 125 g ai/ha) it was 90; in assay [4] (Preemergence, 250 g ai/ha), 95. Also, the “Plant response rating, Bromegrass, Downy” value in assay [3] (Preemergence, 62 g ai/ha) was determined as 0; in assay [3] (Preemergence, 31 g ai/ha), 0. Also, the “Plant response rating, Kochia” value in assay [2] (Postemergence, 31 g ai/ha, scale 0 to 100 (0 no effect, 100 complete control)) turned out to be 70; in assay [2] (Postemergence, 62 g ai/ha, scale 0 (no effect) to 100 (complete control)), 75; in assay [2] (setting [7]), 80; in assay [2] (setting [8]), 80. For the same molecule, the “Plant response rating, Chickweed” value in assay [4] (Preemergence, 62 g ai/ha) amounted to 80; in assay [4] (Preemergence, 31 g ai/ha) it was 45.

In the case of `O=C1NCC(c2cccc(C(F)F)c2)C1C(=O)Nc1ccccc1F` (racemic) [Compound 210], the “Plant response rating, Rice” value in assay [1] (125 g ai/ha), in assay [1] (250 g ai/ha) and in assay [1] (500 g ai/ha) was 0 each time.

For `O=C1NCC(c2cc(F)c(F)cc2F)C1C(=O)Nc1cccc(F)c1F` (stereo not drawn) [Compound 50], the Plant response rating in assay [3] (Postemergence, 16 g ai/ha) is 0; in assay [3] (Postemergence, 31 g ai/ha) it was 0; in assay [3] (Postemergence, 62 g ai/ha), 0; in assay [3] (Postemergence, 125 g ai/ha) it was 0; in assay [3] (Preemergence, 125 g ai/ha), 0; in assay [4] (Postemergence, 16 g ai/ha) it was 10. Moreover, the Plant response rating in assay [4] (Postemergence, 31 g ai/ha) was determined as 15; in assay [4] (Postemergence, 62 g ai/ha) it was 20; in assay [4] (Postemergence, 125 g ai/ha), 15; in assay [4] (Preemergence, 125 g ai/ha), 0. The “Plant response rating, Bromegrass, Downy” value was determined as 0 in assay [3] (Preemergence, 62 g ai/ha); 0 in assay [3] (Preemergence, 16 g ai/ha); 0 in assay [3] (Preemergence, 31 g ai/ha). The “Plant response rating, Kochia” value in assay [2] (setting [5]), in assay [2] (setting [6]), in assay [2] (setting [7]) and in assay [2] (setting [8]) was 0 in each case. Further, the “Plant response rating, Chickweed” value in assay [4] (Preemergence, 62 g ai/ha) is reported as 0; in assay [4] (Preemergence, 16 g ai/ha), 0; in assay [4] (Preemergence, 31 g ai/ha), 0.

Regarding `O=C1NCC(c2ccc(Cl)c(F)c2)C1C(=O)Nc1cccc(F)c1F` (stereo not drawn) [Compound 52], the Plant response rating in assay [3] (Postemergence, 16 g ai/ha) turned out to be 0; in assay [3] (Postemergence, 31 g ai/ha) it was 0; in assay [3] (Postemergence, 62 g ai/ha), 0; in assay [3] (Postemergence, 125 g ai/ha), 0; in assay [3] (Postemergence, 250 g ai/ha) it was 0; in assay [3] (Preemergence, 125 g ai/ha) it was 0. Further, the Plant response rating in assay [3] (Preemergence, 250 g ai/ha) was determined as 0; in assay [4] (Postemergence, 16 g ai/ha), 0; in assay [4] (Postemergence, 31 g ai/ha), 0; in assay [4] (Postemergence, 62 g ai/ha), 10; in assay [4] (Postemergence, 125 g ai/ha), 15; in assay [4] (Postemergence, 250 g ai/ha) it was 25. For the same molecule, the “Plant response rating, Bromegrass, Downy” value in assay [3] (Preemergence, 62 g ai/ha) is recorded as 0; in assay [3] (Preemergence, 16 g ai/ha), 0; in assay [3] (Preemergence, 31 g ai/ha), 0. The “Plant response rating, Kochia” value in assay [2] (setting [5]) is 30; in assay [2] (setting [6]) it was 35; in assay [2] (setting [7]), 40; in assay [2] (setting [8]) it was 50; in assay [2] (Preemergence, 62 g ai/ha, scale 0 to 100), 10; in assay [2] (Preemergence, 125 g ai/ha, scale 0 to 100 (0 no effect, 100 complete control)), 15.

Consider `O=C1NCC(c2ccc(C(F)(F)F)cc2)C1C(=O)Nc1cccc(F)c1F` (stereo not drawn) [Compound 80, N-(2,3-difluorophenyl)-2-oxo-4-[4-(trifluoromethyl)phenyl]-3-pyrrolidinecarboxamide], for which the Plant response rating in assay [3] (Postemergence, 31 g ai/ha) is on record as 15; in assay [3] (Postemergence, 62 g ai/ha) it was 15; in assay [3] (Postemergence, 125 g ai/ha), 20; in assay [3] (Postemergence, 250 g ai/ha) it was 20; in assay [3] (Preemergence, 125 g ai/ha) it was 5; in assay [3] (Preemergence, 250 g ai/ha), 10. The Plant response rating in assay [4] (Postemergence, 31 g ai/ha) is given as 35; in assay [4] (Postemergence, 62 g ai/ha), 45; in assay [4] (Postemergence, 125 g ai/ha), 85; in assay [4] (Postemergence, 250 g ai/ha), 85; in assay [4] (Preemergence, 125 g ai/ha), 100; in assay [4] (Preemergence, 250 g ai/ha) it was 100. Besides, the “Plant response rating, Bromegrass, Downy” value in assay [3] (Preemergence, 62 g ai/ha) is 5; in assay [3] (Preemergence, 31 g ai/ha) it was 0. The “Plant response rating, Kochia” value is listed as 30 in assay [2] (setting [5]), 55 in assay [2] (setting [6]), 65 in assay [2] (setting [7]) and 65 in assay [2] (setting [8]). The “Plant response rating, Chickweed” value in assay [4] (Preemergence, 62 g ai/ha) was 100; in assay [4] (Preemergence, 31 g ai/ha) it was 85.

Turning to `CN1CC(c2ccc(F)c(F)c2)C(C(=O)Nc2cccc(F)c2F)C1=O` (stereo not drawn) [Compound 303], the “Plant response rating, Rice” value is 0 in assay [1] (62 g ai/ha), 0 in assay [1] (125 g ai/ha), 15 in assay [1] (250 g ai/ha) and 30 in assay [1] (500 g ai/ha).
